We go through 7 compounds from US6872702B1, “Inhibitors for urokinase receptor” (Wilex AG, priority 1997, dated 2005).

Marks after values point to notes of the source that are not given here. Positions of bridges follow the written chain, without caps; N, C: chain ends. Residues, ends and D or L forms follow the SMILES beside them. No end group written: not given here.

Series [1] deals with T1, cell surface-associated uPAR (Homo sapiens, UniProt Q03405).
T1 construct: source of cellular native uPAR; endogenous in cells; host or cells: U937 cells stimulated with PMA
In words: Flow cytometry: inhibition of binding of FITC-conjugated pro-uPA to cell surface-associated uPAR on PMA-stimulated U937 cells. On the procedure: The ability of the synthetic peptides to inhibit the uPA/uPAR interaction was determined by means of flow cytometry on a FACScan flow cytometer (Becton-Dickinson, Heidelberg, Germany) using the human promyeloid cell line U937 as a source of cellular native uPAR (Chuchulowski et al., Fibrinolysis 6, Suppl. 4 (1992), 95-102; Magdolen et al., (1996), supra). The U937 cells were stimulated with […] phorbol-12-myristate-13-acetate (PMA) for 48 h. After stimulation with PMA the U937 cells expressed considerable amounts of cell surface-associated uPAR.
The stimulated cells were treated for 1 min at room temperature with 50 mM glycine HCl, 0.1 NaCl, pH 3.6 in order to dissociate endogenous receptor-bound uPA. Subsequently the acidic buffer was neutralized with 0.5 M HEPES-100 mM NaCl, pH 7.5. […] Before the analysis, propidium iodide, a fluorescent dye which specifically binds double-stranded DNA, was added to each sample in order to determine the viability of the analysed U937 cells. […]
For this the purified peptides were analysed by mass spectroscopy, quantified by amino acid analysis and then tested by flow cytometry according to the method described in 1.3 for their ability to inhibit the binding of fluorescent-labelled pro-uPA to the uPA receptor on U937 cells. […]

A further series deals with T2, recombinant human uPAR (Homo sapiens, UniProt Q03405).
T2 construct: made in house; host or cells: CHO cells
Kind of series: Microtitre plate solid phase ATF-ligand binding test. To be noted: 0.6 ng ATF together with 15 μg synthetic peptide per ml; FIG. 2. As to the method:
In addition to the flow cytometric analyses, a solid phase ATF-ligand binding test was carried out in order to examine the interactions of synthetic peptides with the uPAR. For this microtitre plates were coated with recombinant human uPAR from CHO cells (Wilhelm et al., FEBS Lett. 337 (1994), 131-134; Magdolen et al., Electrophoresis 16 (1995), 813-816) and the remaining protein-binding sites were saturated with 2% BSA (weight/vol). After incubation with the samples (0.6 ng ATF together with 15 μg synthetic peptide per ml) and several wash steps, the amount of ATF which had bound to the uPAR immobilized on the microtitre plate was determined using a biotinylated monoclonal mouse antibody against the kringle domain of ATF (No. 377, American Diagnostics, Greenwich, Conn., USA) and subsequent addition of avidin-peroxidase conjugate and 3,3′,5,5′-tetramethylbenzidine/[…] as a substrate for the peroxidase. The presence of synthetic peptides which compete with the ATF binding to uPAR reduces the conversion of the chromogenic substrate.
A series of peptides with variable sequence regions from the receptor binding region of uPA were synthesized and were increasingly shortened at the amino terminus starting with uPA10-32. The microtitre plate solid phase binding test described in 1.4 was used to determine the inhibitory capacity of these peptides.

Series [2] relates to human breast cancer cells MDA-MB-231. Kind of series: Primary tumour growth of MDA-MB-231 cells injected into naked mice. It counts as in vivo, Balbc/3 naked mice. The settings on record: 10 mg/kg intraperitoneally twice weekly. On the procedure:
6×10^6 human breast cancer cells MDA-MB-231 (Price et al., Cancer Res. 50 (1990), 717-721) in a total volume of 300 μl were injected into the right side of 4-6 week old Balbc/3 naked mice. Before injection the cancer cells were mixed with 200 μg of the cyclic uPA peptides cyclo^19,31uPA19-31 (SEQ ID NO: 3) and Cyclo^21,29[Cys21,29]uPA21-30 (SEQ ID NO: 4) in PBS, pH 7.4. Subsequently the mice were treated twice weekly intraperitoneally with the respective peptide at a dose of 10 mg/kg body weight (injection volume 300 μl). The volume of the primary tumours which occurred in the mice in cm^3 was determined after 1, 2, 3 and 5 weeks by measuring the two largest diameters. The control mice were administered PBS pH 7.4. Each group was composed of 5 mice. The results for the peptide cyclo^19,31uPA19-31 (SEQ ID NO: 3) are shown in Tab. 2.

Series [3] is described as follows: Stability of binding activity after long storage in aqueous solution or repeated freeze/thaw cycles. It counts as physicochemical.

T2 sequence (Q03405 23-299 limits assumed): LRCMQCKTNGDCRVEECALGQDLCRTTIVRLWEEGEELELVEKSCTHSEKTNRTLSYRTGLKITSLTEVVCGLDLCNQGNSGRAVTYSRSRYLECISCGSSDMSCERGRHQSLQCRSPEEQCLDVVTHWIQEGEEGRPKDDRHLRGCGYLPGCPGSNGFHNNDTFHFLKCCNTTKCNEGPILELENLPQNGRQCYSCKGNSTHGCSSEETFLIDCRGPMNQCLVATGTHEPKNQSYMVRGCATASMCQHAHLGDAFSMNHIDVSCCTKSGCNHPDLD
T1 sequence (Q03405 23-305): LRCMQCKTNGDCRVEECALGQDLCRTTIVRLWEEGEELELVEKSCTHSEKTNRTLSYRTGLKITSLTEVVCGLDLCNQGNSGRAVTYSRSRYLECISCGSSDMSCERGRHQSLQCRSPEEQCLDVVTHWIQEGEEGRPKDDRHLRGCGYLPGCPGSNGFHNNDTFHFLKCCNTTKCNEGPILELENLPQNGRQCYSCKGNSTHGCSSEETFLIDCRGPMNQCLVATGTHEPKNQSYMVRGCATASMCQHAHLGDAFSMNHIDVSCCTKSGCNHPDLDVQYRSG

On to `CC[C@H](C)[C@H](NC(=O)[C@H](CC(N)=O)NC(=O)[C@H](CO)NC(=O)[C@H](Cc1ccccc1)NC(=O)[C@H](Cc1ccc(O)cc1)NC(=O)[C@H](CCCCN)NC(=O)[C@H](CC(N)=O)NC(=O)[C@H](CO)NC(=O)[C@@H](NC(=O)[C@H](CS)NC(=O)[C@@H](NC(=O)CNC(=O)CN)[C@@H](C)O)C(C)C)C(=O)N[C@@H](Cc1c[nH]cn1)C(=O)N[C@@H](Cc1c[nH]c2ccccc12)C(=O)N[C@@H](CS)C(=O)N[C@@H](CC(N)=O)C(=O)O` [uPA16-32] (H-GGTCVSNKYFSNIHWCN-OH; N-terminus assumed), for which the “fold higher affinity to uPAR compared to uPA12-32 [C19A] and clone 20 peptide” value in series [1] is reported as 4- to 5 fold. Further, in series [1] (FITC-conjugated pro-uPA), the “molar excess resulting in a 50% inhibition of the binding of uPA” value was “approximately 3,000 molar excess”. The “inhibition of the binding of ATF to uPAR / uPAR binding capacity” value (from here on “inhibition … to uPAR / uPAR binding capacity”) on recombinant human uPAR was “effectively inhibit”.

Consider `CC[C@H](C)[C@H](NC(=O)[C@H](CC(N)=O)NC(=O)[C@H](CO)NC(=O)[C@H](Cc1ccccc1)NC(=O)[C@H](Cc1ccc(O)cc1)NC(=O)[C@H](CCCCN)NC(=O)[C@H](CC(N)=O)NC(=O)[C@H](CO)NC(=O)[C@@H](NC(=O)[C@@H](N)CS)C(C)C)C(=O)N[C@@H](Cc1c[nH]cn1)C(=O)N[C@@H](Cc1c[nH]c2ccccc12)C(=O)N[C@@H](CS)C(=O)O` [uPA19-31] (H-CVSNKYFSNIHWC-OH; N-terminus and C-terminus assumed), for which the “inhibition … to uPAR / uPAR binding capacity” value at recombinant human uPAR is given as “higher affinity than the longer peptide uPA16-32”.

Take “cyclo^19-31uPA19-31: cyclic peptide uPA19-31 with an intramolecular disulfide bond between the cysteine residues at positions 19 and 31 (CVSNKYFSNIHWC; disulfide 1-13)”: the “inhibition … to uPAR / uPAR binding capacity” value with recombinant human uPAR was “still able to inhibit the binding of uPA to the uPA receptor”. Further, the “volume of the primary tumours” value was 0 cm^3 in series [2] (week 1); 0.086 ± 0.047 cm^3 in series [2] (week 2); 0.303 ± 0.129 cm^3 in series [2] (week 3); 0.62 ± 0.21* cm^3 in series [2] (week 5, p = 0.02). In addition, the “stability of binding activity compared with linear peptide uPA19-31” value in series [3] is given as “significantly more stable”.

As for “uPA10-32: linear peptide from the receptor binding region of uPA, amino acids 10-32 (NCDCLNGGTCVSNKYFSNIHWCN)”, the “inhibition … to uPAR / uPAR binding capacity” value with recombinant human uPAR was “effectively inhibit”.

On to “uPA12-31: linear peptide from the receptor binding region of uPA, amino acids 12-31 as printed (DCLNGGTCVSNKYFSNIHWC)”, for which the “inhibition … to uPAR / uPAR binding capacity” value in the series with recombinant human uPAR is listed as “effectively inhibit”.

As to “uPA14-32: linear peptide from the receptor binding region of uPA, amino acids 14-32 (LNGGTCVSNKYFSNIHWCN)”, in the series with recombinant human uPAR, the “inhibition … to uPAR / uPAR binding capacity” value is “effectively inhibit”.

Regarding “uPA20-34: linear peptide from the receptor binding region of uPA, amino acids 20-34 (VSNKYFSNIHWCNCP)”, in the series with recombinant human uPAR, the “inhibition … to uPAR / uPAR binding capacity” value is “does not bind at all”.
